# Assay results from patent publication US20240407993A1, “PEPTIDE HAVING ANTI-AGING ACTIVITY, AND USE THEREOF” (CAREGEN CO., LTD., priority 2021, published 2024).
# What was measured:
# [1] = system: MMP-1; assay: MMP-1 protein expression increased by UV irradiation, western blot in keratinocytes; type: cell-based, human; conditions: HaCaT cells, 15 mJ/cm^2 UVB, peptide 1, 10, 50 μM, 24 hours after irradiation; FIG. 6B
# Protocol: The expression of MMP-1 encoding proteins related to collagen degradation increases by ultraviolet irradiation. Therefore, it was confirmed whether the expression of the MMP-1 protein was inhibited again and the cell aging phenomenon was inhibited when treated with the peptide of the present invention.
# First, NIH3T3 cells and HaCaT cells were seeded in a 6-well plate at a cell density of 5×10^5 cell/well, respectively, and then the cells were cultured in DMEM medium containing 10% fetal bovine serum (FBS) for 24 hours. The cultured cells were washed once with serum free DMEM medium, and the peptide of the present invention was mixed in 1 mL of the serum free DMEM medium at each of concentrations of 1, 10, and 50 μM, and dispensed into the cells. A positive control (PC) was treated with 2.5 mM of N-Acetylcysteine (NaC) instead of the above peptide.
# The cells were cultured in a CO2 incubator at 37° C. for 1 hour. The medium of the cultured cells was transferred to a tube (e-tube), 1 ml of PBS was added, and then the NIH3T3 cells were irradiated with 6 J/cm^2 of UVA and the HaCaT cells were irradiated with 15 mJ/cm^2 of UVB using a UV irradiator (VILBER LOURMAT, Cat No.: 3102-BSU, France). After removing PBS, 900 μL of the medium transferred to the tube was added, and culture was performed in a CO2 incubator at 37° C. for 24 hours. […]
# [2] = system: Col1a1; assay: Col1a1 mRNA level decreased by UV irradiation, RT-PCR in fibroblasts; type: cell-based, mouse; conditions: NIH3T3 cells, 8 J/cm^2 UVA, peptide 1, 10, 50 μM, 6 hours after irradiation; FIGS. 5A, 5B
# Protocol: (§1) The expression of genes related to extracellular matrix components is inhibited when irradiated with UV.
# (§2) First, NIH3T3 cells were seeded in a 6-well plate at a cell density of 5×10^5 cell/well, and then the cells were cultured in DMEM medium containing 10% fetal bovine serum (FBS) for 24 hours. The cultured cells were washed once with serum free DMEM medium, and then the peptide of the present invention was mixed in 1 mL of the serum free DMEM medium at each of concentrations of 1, 10, and 50 μM, and dispensed into the cells. A positive control (PC) was treated with 50 μM of Quercetin instead of the above peptide. The cells were cultured in a CO2 incubator at 37° C. for 1 hour.
# (§3) The medium of the cultured cells was transferred to a tube (e-tube), 1 ml of PBS was added, and irradiation was performed with 8 J/cm^2 of UVA using a UV irradiator (VILBER LOURMAT, Cat No.: 3102-BSU, France). After removing PBS, 900 μL of the medium transferred to the tube was dispensed, and culture was performed in a CO2 incubator at 37° C. for 6 hours. The cultured cells were washed twice with PBS, and then RNA was extracted from the cells using easy blue (iNtRON, Cat. No.: 17061, Korea). The amount of RNA extracted was quantified, 1,000 ng of RNA was added per tube, and RT reaction was performed using a kit (enzynomics, Cat. No.: RT200, Korea). […]
# [3] = system: AQP3; assay: AQP3 mRNA level by RT-PCR in keratinocytes; type: cell-based, human; conditions: HaCaT cells, peptide 1, 10, 50 μM, 24 hours; FIGS. 3A, 3C
# Protocol: as §2, with “First, HaCaT” for “First, NIH3T3”, “of 3×10^5” for “of 5×10^5”, “with 100 nM” for “with 50 μM”, “of EGF” for “of Quercetin”, “for 24 hours.” for “for 1 hour.”
# (§4) The cultured cells were washed twice with PBS, and then RNA was extracted from the cells using easy blue (iNtRON, Cat. No.: 17061, Korea). The extracted RNA was subjected to RT reaction using a kit (enzynomics, Cat. No.: RT200, Korea). Thereafter, RT-PCR was performed using a PCR kit (enzynomics, Cat. No.: R581T, Korea). The sequences of the primers of AQP3 and SIRT1 used in RT-PCR and the sequence of the primer of GAPDH used to compare the total RNA amount of each treatment group are shown in [Table 2].
# [4] = system: SIRT1; assay: SIRT1 mRNA level by RT-PCR in keratinocytes; type: cell-based, human; conditions: HaCaT cells, peptide 1, 10, 50 μM, 24 hours; FIGS. 3A, 3B
# Protocol: as §2, with “First, HaCaT” for “First, NIH3T3”, “of 3×10^5” for “of 5×10^5”, “with 100 nM” for “with 50 μM”, “of EGF” for “of Quercetin”, “for 24 hours.” for “for 1 hour.”
# as §4
# [5] = system: Elastin; assay: Elastin mRNA level decreased by UV irradiation, RT-PCR in fibroblasts; type: cell-based, mouse; conditions: NIH3T3 cells, 8 J/cm^2 UVA, peptide 1, 10, 50 μM, 6 hours after irradiation; FIGS. 5A, 5D
# Protocol: as §1, §2, §3
sequence,measurement,setting,value
LCACCLHNCNECQ,expression of MMP-1 increased by UV irradiation,[1],inhibited
same,mRNA level of Col1a1 decreased by UV irradiation,[2],increased again
same,mRNA level of AQP3,[3],increased
same,mRNA level of SIRT1,[4],increased
same,mRNA level of elastin decreased by UV irradiation,[5],increased again
